Laboratory results as given in PubChem BioAssay AID2060484 (Molecular Pharmacology Branch, DTP, NCI, 2025).

Tested on: SUM149PT spheroids with HUVEC/MSC, viability
Assay: Anticancer human tumor SUM149PT cell line growth inhibition [GQUAD];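 further: spheroids exposed to drugs for seven days before readout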;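 on viability, T/C: percent viability relative to DMSO vehicle control taken as 100%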
Conditions: for IC50: curve of first compound; for viability, T/C: stronger effect = lower value; active means viability on the fitted dose curve at most 10% of control; inactive means the rest
Outline: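 Tumor cells were grown as complex spheroids with HUVEC endothelial cells and mesenchymal stem cells as stroma. G-quadruplex stabilizers were combined with targeted agents over half-log dilutions from near the clinical Cmax, or from 10 microM.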

[1] = second compound 0.0316 µM, first compound 0.0316 µM
[2] = second compound 0.0316 µM, first compound 0.1 µM
[3] = second compound 0.0316 µM, first compound 0.316 µM
[4] = second compound 0.0316 µM, first compound 1 µM
[5] = second compound 0.0316 µM, first compound 3.16 µM
[6] = second compound 0.0316 µM, first compound 10 µM
[7] = second compound 0.1 µM, first compound 0.0316 µM
[8] = second compound 0.1 µM, first compound 0.1 µM
[9] = second compound 0.1 µM, first compound 0.316 µM
[10] = second compound 0.1 µM, first compound 1 µM
[11] = second compound 0.1 µM, first compound 3.16 µM
[12] = second compound 0.1 µM, first compound 10 µM
[13] = second compound 0.316 µM, first compound 0.0316 µM
[14] = second compound 0.316 µM, first compound 0.1 µM
[15] = second compound 0.316 µM, first compound 0.316 µM
[16] = second compound 0.316 µM, first compound 1 µM
[17] = second compound 0.316 µM, first compound 3.16 µM
[18] = second compound 0.316 µM, first compound 10 µM
[19] = second compound 1 µM, first compound 0.0316 µM
[20] = second compound 1 µM, first compound 0.1 µM
[21] = second compound 1 µM, first compound 0.316 µM
[22] = second compound 1 µM, first compound 1 µM
[23] = second compound 1 µM, first compound 3.16 µM
[24] = second compound 1 µM, first compound 10 µM
[25] = second compound 3.16 µM, first compound 0.0316 µM
[26] = second compound 3.16 µM, first compound 0.1 µM
[27] = second compound 3.16 µM, first compound 0.316 µM
[28] = second compound 3.16 µM, first compound 1 µM
[29] = second compound 3.16 µM, first compound 3.16 µM
[30] = second compound 3.16 µM, first compound 10 µM
[31] = second compound 10 µM, first compound 0.0316 µM
[32] = second compound 10 µM, first compound 0.1 µM
[33] = second compound 10 µM, first compound 0.316 µM
[34] = second compound 10 µM, first compound 1 µM
[35] = second compound 10 µM, first compound 3.16 µM
[36] = second compound 10 µM, first compound 10 µM

C=CCn1c(=O)c2cnc(Nc3ccc(N4CCN(C)CC4)cc3)nc2n1-c1cccc(C(C)(C)O)n1 + Cc1cnc(CNC(=O)c2c(=O)c3ccc(N4CCCN(C)CC4)nc3n3c2sc2ccccc23)cn1
inactive: viability, T/C [1] 74.3% | viability, T/C [2] 37% | viability, T/C [3] 22.9% | viability, T/C [4] 14.2% | viability, T/C [5] 9.59% | viability, T/C [7] 42.7% | viability, T/C [8] 34.8% | viability, T/C [9] 18.6% | viability, T/C [10] 16.3% | viability, T/C [13] 45.9% | viability, T/C [14] 32.1% | viability, T/C [15] 21.3% | viability, T/C [16] 16.5% | viability, T/C [17] 11.3% | viability, T/C [19] 34.5% | viability, T/C [20] 25.6% | viability, T/C [21] 20.6% | viability, T/C [22] 17.7% | viability, T/C [23] 13.7% | viability, T/C [24] 11.5% | viability, T/C [25] 32.9% | viability, T/C [26] 26.3% | viability, T/C [27] 20.3% | viability, T/C [28] 16.7% | viability, T/C [29] 12.7% | viability, T/C [30] 10.6%
0.0686 µM: IC50 (second compound 0.0316 µM)
active: viability, T/C [6] 8.42% | viability, T/C [11] 9.24% | viability, T/C [12] 8.01% | viability, T/C [18] 8.57% | viability, T/C [31] 0.17% | viability, T/C [32] 1.7% | viability, T/C [33] 0.84% | viability, T/C [34] 1.14% | viability, T/C [35] 0.21% | viability, T/C [36] 2.8%
< 0.0316 µM: IC50 (second compound 0.1 µM) | IC50 (second compound 0.316 µM) | IC50 (second compound 1 µM) | IC50 (second compound 3.16 µM) | IC50 (second compound 10 µM)

CC(C)(O)C1CCC(Nc2ccc3ncc(-c4cccc(C(F)(F)F)c4)n3n2)CC1 (centres undefined) + Cc1cnc(CNC(=O)c2c(=O)c3ccc(N4CCCN(C)CC4)nc3n3c2sc2ccccc23)cn1
< 0.0316 µM: IC50 (second compound 1 µM) | IC50 (second compound 3.16 µM) | IC50 (second compound 10 µM)
1.09 µM: IC50 (second compound 0.0316 µM)
inactive: viability, T/C [1] 72.8% | viability, T/C [2] 69.2% | viability, T/C [3] 58.2% | viability, T/C [4] 57% | viability, T/C [5] 32.6% | viability, T/C [6] 29.5% | viability, T/C [7] 57.3% | viability, T/C [8] 63% | viability, T/C [9] 67% | viability, T/C [10] 43.9% | viability, T/C [11] 26.2% | viability, T/C [12] 24.3% | viability, T/C [13] 52.9% | viability, T/C [14] 50.8% | viability, T/C [15] 47.9% | viability, T/C [16] 44.6% | viability, T/C [17] 22.5% | viability, T/C [18] 25.8% | viability, T/C [19] 43.7% | viability, T/C [20] 43.6% | viability, T/C [21] 37.9% | viability, T/C [22] 37.3% | viability, T/C [23] 18.9% | viability, T/C [24] 17.4% | viability, T/C [25] 32.9% | viability, T/C [26] 34.7% | viability, T/C [27] 32.5% | viability, T/C [28] 32.1% | viability, T/C [29] 18.5%
0.349 µM: IC50 (second compound 0.316 µM)
active: viability, T/C [30] 1.21% | viability, T/C [31] 0.27% | viability, T/C [32] 2.83% | viability, T/C [33] 2.02% | viability, T/C [34] 1.99% | viability, T/C [35] 2.14% | viability, T/C [36] 1.18%
0.685 µM: IC50 (second compound 0.1 µM)
